{"source": "PubChem BioAssay AID2305", "about": "(GlaxoSmithKline (GSK), 2010)"}
{"tested_on": "P. falciparum 3D7 growth, pLDH absorbance", "assay": "blood-stage malaria parasite growth potency – strain 3D7, dose response (AID 2305)", "units": {"IC50": "nM"}}
{"smiles": "CCNc1cc(C(=O)N[C@@H](Cc2ccccc2)[C@H](O)CNC2C3CC4CC(C3)CC2C4)cc(N2CCCCS2(=O)=O)c1", "note": "(stereo partly drawn)", "IC50": 670}
{"smiles": "O=C(CSc1nccn1Cc1ccco1)Nc1cc(C(F)(F)F)ccc1Cl", "IC50": 820}
{"smiles": "CCCC(C)n1ccc2c3c(N)nc(N)nc3ccc21", "note": "(stereo not drawn)", "IC50": 50}
{"smiles": "Cc1cccn2c(=O)c3cc(C(=O)NCc4cccnc4)c(=N)n(CCc4ccccc4)c3nc12", "IC50": 710}
{"smiles": "O=C(NCCCCN1CC=C(c2ccc3c(c2OCC2CC2)CCCC3)CC1)c1ccc(-c2ccc(C(F)(F)F)cc2)cc1", "IC50": 540}
{"smiles": "COc1cccc(CNC(=O)c2cccc(-c3cccc(CN4CCC(N5CCCC5)CC4)c3)n2)c1", "IC50": 1030}
{"smiles": "COc1ccc(N2CCN(CCCC/C=C/c3ccc(NC(=O)c4cc(Cl)cc(Cl)c4)cc3)CC2)c(OC)c1", "IC50": 660}
{"smiles": "CC(C)N1CCN(C(CN2CCN(CCCOc3cccc4ccccc34)CC2)c2ccc(F)cc2)CC1", "note": "(stereo not drawn)", "IC50": 880}
{"smiles": "Cc1nn(CCOC(=O)NC(NCC2COc3ccccc3O2)C(Cl)(Cl)Cl)cc1[N+](=O)[O-]", "note": "(stereo not drawn)", "IC50": 920}
{"smiles": "CCC(C)NS(=O)(=O)c1ccc2nc(Nc3ccc(C)cc3)n(C3CCCCC3C)c2c1", "note": "(stereo not drawn)", "IC50": 590}
{"smiles": "COc1cc(Cn2ccc3c4c(N)nc(N)nc4ccc32)cc(OC)c1OC", "IC50": 10}
{"smiles": "COc1ccc2nc(C)cc(NN=Cc3cc(OC)c(OC)cc3OC)c2c1", "IC50": 740}
{"smiles": "COc1cc2nc(N(C)Cc3cc4c(Cl)cccc4s3)nc(N)c2cc1OC", "IC50": 950}
{"smiles": "O=C(NCc1ccc(C(=O)NC2CCCCCC2)cc1)c1ccc(O)c(-c2ccc(Cl)c(Cl)c2)c1", "IC50": 1060}
{"smiles": "CN(C)S(=O)(=O)n1ncc2c3c(N)nc(N)nc3ccc21", "IC50": 180}
{"smiles": "Nc1nc(N)c2c(Oc3ccc(Cl)c(Cl)c3)cccc2n1", "IC50": 870}
{"smiles": "COc1ccc2nccc([C@@H](O)CN3CCC(NC(=O)Cc4cc5ccccc5s4)CC3)c2c1", "IC50": 910}
{"smiles": "CCCc1cc(Cc2cnc(N)nc2N)cc(CC)c1OC", "IC50": 820}
{"smiles": "CN1CCC(Oc2ccc(CN3CC[C@H](NC(=O)c4ccc(Cl)c(Cl)c4)C3)c3ccccc23)C1", "note": "(stereo partly drawn)", "IC50": 880}
{"smiles": "O=C(/C=C/c1ccc(Cl)c(Cl)c1)Nc1cccc(CN2CCC(c3c[nH]c4ccc(O)cc34)CC2)c1", "IC50": 940}
{"smiles": "Cc1ccc(C(NC(=O)c2ccccc2)c2ccc3cccnc3c2O)cc1", "note": "(stereo not drawn)", "IC50": 960}
{"smiles": "O=C(/C=C/c1ccc(Cl)c(Cl)c1)NCCCCCN1CCC(NC(=O)Nc2ccc(Cl)cc2Cl)CC1", "IC50": 640}
{"smiles": "O=C(NCCc1ccccc1)N(Cc1ccccc1-c1cccc(CNC2CCCC2)c1)C1CCN(Cc2ccccc2)CC1", "IC50": 830}
{"smiles": "Clc1ccc(-c2ccc(C=NNc3nc(Nc4ccccc4)nc(Nc4ccccc4)n3)o2)cc1Cl", "IC50": 740}
{"smiles": "COc1ccc(CNC2CCN(C)CC2)cc1-c1ccc(S(=O)(=O)NC2CCC2)c(C)c1", "IC50": 990}
{"smiles": "CCOC(=O)Cc1nc(N)c(C(=O)OCC)[nH]1", "IC50": 650}
{"smiles": "O=C(NCCCN1CCOCC1)c1ccc(-c2cccc(NC(=O)c3ccc(Cl)c(Cl)c3)c2)cc1", "IC50": 680}
{"smiles": "COc1cc(Cc2cnc(N)nc2N)cc(OCCCOc2ccccc2)c1OC", "IC50": 1080}
{"smiles": "CCNCc1cccc(-c2ccc3ccnc(N)c3c2)c1", "IC50": 50}
{"smiles": "CC(C)n1c(C2CCN(CC3CCN(C(=O)/C=C/c4ccc(Cl)c(Cl)c4)CC3)CC2)nc2ccccc21", "IC50": 1030}
{"smiles": "O=C(O)C[C@H](NC(=O)CCCNC(=O)c1cccc(-c2ccc(Cl)c(Cl)c2)c1)C(=O)O", "IC50": 880}
{"smiles": "NS(=O)(=O)c1cccc(Br)c1", "IC50": 890}
{"smiles": "O=C(NCCCCCN1CCC(c2c[nH]c3ccccc23)CC1)Nc1cccc(Cl)c1", "IC50": 1020}
{"smiles": "Brc1ccc(Nc2nc(NCc3ccccc3)c3ccccc3n2)cc1", "IC50": 340}
{"smiles": "Cc1ccc(C=C2SC(=Nc3ccccc3)NC2=O)c(C)c1", "IC50": 560}
{"smiles": "O=S(=O)(Nc1ccc2nccc(N3CCNCC3)c2c1)c1ccc2c(Cl)cccc2c1", "IC50": 570}
{"smiles": "O=C(/C=C/c1ccsc1)N1CCC(CCN2CCC(c3c[nH]c4ccccc34)CC2)CC1", "IC50": 910}
{"smiles": "O=C(NCc1ccc(F)cc1)Nc1cccc(-c2ccc(-c3nc4ccc(F)cc4[nH]3)cc2)c1", "IC50": 230}
{"smiles": "Cc1ccccc1NC(=O)C1CSCN1C(=O)OCc1ccccc1", "note": "(stereo not drawn)", "IC50": 980}
{"smiles": "CCNC(C)(C)CN(Cc1ccc(-c2ccc(C(F)(F)F)cc2)cc1)C(=O)Cn1c(CCc2cccc(F)c2F)nc(=O)c2ccccc21", "IC50": 810}
{"smiles": "N#Cc1ccc(C2CCN(CC[C@H](N)Cc3ccc(Cl)s3)CC2)cc1", "IC50": 1260}
{"smiles": "CCCNCc1ccc(-c2ccc(CN(C(=O)c3nn(-c4ccccc4)nc3C)C(C)CN(C)C)cc2)nc1", "note": "(stereo not drawn)", "IC50": 920}
{"smiles": "CC(C)(CNC(=O)/C=C/c1ccc(C(F)(F)F)cc1)CNc1cc(=O)c2ccccc2[nH]1", "IC50": 910}
{"smiles": "CN1CCCC(CN2CCN(Cc3ccc(-c4cccc(-c5nc6ccccc6[nH]5)c4)cc3)CC2)C1", "note": "(stereo not drawn)", "IC50": 130}
{"smiles": "COc1cc(NC(=O)/C=C/c2ccccc2Cl)cc(OCCN2CCC(O)(c3ccccc3)CC2)c1", "IC50": 170}
{"smiles": "Nc1ncc(-c2cccc(F)c2)cc1-c1nc2ccc(F)cc2[nH]1", "IC50": 180}
{"smiles": "COc1cccc(CNC[C@@H](O)[C@H](Cc2ccccc2)NC(=O)c2cc(C3CCCC3)cc(N3CCCCS3(=O)=O)c2)c1", "IC50": 600}
{"smiles": "CO/C(=C\\C=C\\c1cc2cc(Cl)c(Cl)cc2[nH]1)C(=O)NCCCN1CCCC[C@H]1C", "IC50": 790}
